A melting point compilation (Tetko et al.; mined from patent text by program, amines drawn as free bases though some values may be those of a salt)

Row | Compound | melting point
1 | COC(=O)CCc1cc(C)c(OP(Oc2c(C)cc(CCC(=O)OC)cc2C(C)(C)C)Oc2c(C)cc(CCC(=O)OC)cc2C(C)(C)C)c(C(C)(C)C)c1 | 113 to 114 °C
2 | CC(=O)N1CCCC2(Cc3ccc(Br)cc3)C(=O)N(c3cc(Cl)nc(Cl)c3)C(=O)N12 (stereo not given) | 91 °C
3 | CS(=O)(=O)c1cc(Cl)cc(O)c1O | 142 to 145 °C
4 | COC(=O)CS(=O)(=O)C1CCCCC1Sc1cc(C(C)(C)C)c(O)c(C(C)(C)C)c1 (stereo not given) | 93 °C
5 | O=S(=O)(CC1CCCC1)c1nc[nH]n1 | 150 to 155 °C
6 | CC(C)c1cccc(C(C)C)c1NC(=O)C(Cc1ccccc1)NC(=O)CCCCl (stereo not given) | 212 to 215 °C
7 | Oc1ccc2cc(Br)ccc2c1Cl | 100 to 101 °C
8 | Cc1ccc(S(=O)(=O)C2(CC#Cc3ccc(Cl)cc3)SC(=O)N(C(c3ccccc3)(c3ccccc3)c3ccccc3)C2=O)cc1 (stereo not given) | 221 to 223 °C
9 | CCOC(=O)Nc1cc2c(cn1)[nH]c1ccccc12 | 222 to 224 °C
10 | CCOC(=O)c1ccc(C=C(C)c2ccc3c(c2)SCCC3(C)C)cc1 | 64 to 65 °C
11 | CCc1cc(-c2ccc(-c3cc[nH]n3)cc2)ccc1OC | 164 to 168 °C
12 | CC(C(N)=O)c1ccc2c(c1)CCc1ccccc1O2 (stereo not given) | 122 to 123 °C
13 | OC(c1ccccn1)c1cc(F)ccc1F (stereo not given) | 65 to 66 °C
14 | CC(C)NC1=NS(=O)(=O)c2cc(C(F)(F)F)ccc2N1 | 287 to 289 °C
15 | COCOc1ccc(O)cc1OC | 70 to 72 °C
16 | N#Cc1ccc(N2C(=N)C3(CCSCC3)NC2=O)cc1C(F)(F)F | 226 to 227 °C
17 | c1ccc(Oc2ccncc2)cc1 | 46 to 49 °C
18 | NC(=O)[C@@H]1[C@H](NC(=O)/C(=N\OCC(=O)OCc2ccc([N+](=O)[O-])cc2)c2csc(NC(=O)CCl)n2)C(=O)N1OCC(=O)OCc1ccc([N+](=O)[O-])cc1 | 147 to 153 °C
19 | COc1ccc(S(=O)(=O)N(CC(F)(F)F)c2ccc(Cl)cc2Cc2c(F)cccc2F)cc1OC | 70 °C
20 | O=C(O)Cc1ccc(OCCNC(=O)C2Cc3ccccc3N2S(=O)(=O)c2ccc(-c3ccc(F)cc3)c(C(F)(F)F)c2)cc1 (stereo not given) | 92 °C
21 | C#CCOc1cc(-n2c(C#N)c(C#N)n(CCC)c2=O)c(F)cc1Cl | 164 to 166 °C

Row | Compound | melting point
22 | Cn1cc(C(=O)O)c(=O)c2cc(Cl)c(N3CCOCC3)cc21 | 334 °C
23 | COc1ccc(C(CC(=O)NCc2ccccc2)N2C(=O)c3ccccc3C2=O)cc1OC (stereo not given) | 208 to 210 °C
24 | CC(Cc1cc(-c2ccccc2)nc2ccccc12)C(=O)N(C)C1CCCCC1 (stereo not given) | 160 °C
25 | O=C(NC12CC3CC(CC(C3)C1)C2)c1ccccc1C(c1ccc(O)cc1)c1ccc(O)cc1 | 167 to 169 °C
26 | CCCc1nc(S)nn1-c1ccccc1 | 142 to 143 °C
27 | CNN(NC)C(=S)Oc1cccnc1C(=O)OC | 74 to 75 °C
28 | ClCc1nc2cc(Br)ccc2o1 | 63 to 65 °C
29 | O=C(O)[C@@H]1Cc2c(ncn2Cc2ccccc2)CN1C(=O)C(c1ccc(Cl)cc1)c1ccc(Cl)cc1 | 162 to 170 °C
30 | O=C1OC(c2ccc(Cl)c(S(=O)(=O)Cl)c2)c2ccccc21 (stereo not given) | 158 to 159 °C
31 | Oc1ccc(Nc2ncc3nc(Nc4c(F)cc(F)cc4F)n(C4CCCC4)c3n2)cn1 | 257 to 260 °C
32 | CCCn1nc2c(N)nc3ccccc3c2c1CC(C)(C)NC(=O)NC(C)C | 190 to 191 °C
33 | Cc1cc(Oc2c(Cl)cc(C(F)(F)F)cc2Cl)nn1C(=O)NCCO | 124 to 126 °C
34 | CCC/C(=C\C=O)c1ccc2c(c1)C(CC)(CC)OC(=O)N2 | 173 to 179 °C
35 | CC1CCN(CCCCC(=O)c2ccc3c(c2)Cc2cc(C(=O)CCCCN4CCC(C)CC4)ccc2-3)CC1 | 143 to 144 °C
36 | CN1CCC(C2(O)c3cc(F)ccc3CCc3cccnc32)CC1 (stereo not given) | 126 to 127 °C
37 | COc1ccc(C(=O)Nc2ccccc2C(c2ccc(O)cc2)c2ccc(O)cc2)cc1 | 154 to 156 °C
38 | O=C(O)Cc1ccc2c(c1)C(=O)c1cccc(Cl)c1CO2 | 173 to 176 °C
39 | N#CNC(=S)Nc1ccccc1 | > 250 °C
40 | CC(=O)N(C)C(Cc1ccccc1N)c1ccccn1 (stereo not given) | 103 to 107 °C
41 | CON(O)C(=O)c1ccccc1[N+](=O)[O-] | 104 °C
42 | CCCC1(C)SC(=NOC(=O)NC)N=C1C (stereo not given) | 66 to 69 °C

Second part, the compound after the results:

Row | melting point | Compound
43 | 82 to 83 °C | Nc1c(NCCCO)cccc1OCc1ccccc1
44 | 101 to 102 °C | COc1cc(CCC(=O)CC(=O)c2ccc3ccccc3c2)ccc1O
45 | 179 to 180 °C | CC(=O)c1nc2ccc(S(=O)(=O)c3ccccc3)cc2cc1O
46 | 127 to 128 °C | Cc1c(-c2ccc(OC(F)(F)F)cc2)[nH]c2ccc(OCc3ccccc3)cc12
47 | 131 to 132 °C | COCCc1nc2c(N)nc3ccccc3c2n1CCCCCC(=O)N1CCOCC1
48 | 294 to 295 °C | CC(=O)Nc1nc(/C=C/c2ccc([N+](=O)[O-])cc2)c(-c2ccc(S(C)(=O)=O)cc2)s1
49 | 191 to 196 °C | O=[N+]([O-])c1ccc(-c2cnc(Nc3ccc(Oc4ccccc4)cc3)s2)cc1
50 | 132 °C | COc1ccc(C(=O)N2CC3CC2C(=O)O3)cc1OC (stereo not given)
51 | 142 to 144 °C | NCc1cc2c(N)nccc2o1
52 | 127 to 130 °C | O=C1Nc2cc(Cl)ccc2C1(Br)Br
53 | 98 to 100 °C | COc1ccc(/C=C(\C#N)c2cccc(Cl)c2)cc1OC1CCCC1
54 | 283 to 284 °C | O=C(O)c1cn(C2CC2)c2c(F)c(N3C[C@H](CF)[C@H](NC(=O)C(F)(F)F)C3)c(F)c(F)c2c1=O (relative stereo)
55 | 230 to 233 °C | O=C(NCc1ccc(Cl)cc1)c1cnc2c(I)cc(CN3CCOCC3)cc2c1O
56 | 212 to 213 °C | CC(=O)Nc1c(C(=O)c2ccccc2)[nH]c2cc(Cl)ccc12
57 | 198 °C | Cc1cccc(NC(=O)NC(CC(=O)O)C(=O)N(CC(=O)OC(C)(C)C)c2ccccc2)c1 (racemic)
58 | 139 to 140 °C | O=C1C(O)OCN1c1ccc(Cl)c(Br)c1 (stereo not given)
59 | 203 °C | CC(C)(C)C1=CC(=CC#Cc2ccc(C(=O)O)c(O)c2)C=C(C(C)(C)C)C1=O
60 | 136 to 149 °C | COc1ccc(N(CCN2CCC(C(=O)c3ccc(F)cc3)CC2)C(=O)c2ccc(C#N)cc2)cc1
61 | 124 to 126 °C | Cc1cccc(-c2sc3ccc(C(F)(F)F)cc3c2O)c1
62 | 87 to 92 °C | CCN(CC)C(=O)C1(OC(=S)N(CC)CC)C=CC=NC1F (stereo not given)
63 | 120 to 124 °C | CN1CCN(c2ccc(/C=C/c3cc(/C=C/c4ccc5cc[nH]c5c4)[nH]n3)c(Br)c2)CC1
64 | 183 to 186 °C | NC(=O)N(O)CCNC(=O)c1cccc(S(=O)(=O)c2ccc(Cl)cc2)c1
65 | 130 to 131 °C | CC(=O)Nc1nc2ccccc2c2c(CC(C)C)n(C)nc12
66 | 158 °C | N/C(=C1/Sc2ccccc2C1=O)c1ccc(F)cc1
67 | 159 to 161 °C | CC1=C(C(=O)OC(C)(C)C)C(c2ccccc2[N+](=O)[O-])C(C(=O)OC(C)(C)C)=C(C)N1
68 | 242 to 244 °C | Cc1cc(Nc2cc(-c3ccccc3)nc3ccccc23)[nH]n1
69 | 115 to 117 °C | Nc1c(C2=CCCCC2)c(-c2ccccc2)nn1-c1ccccc1
70 | 192 to 195 °C | CCOC(=O)c1cn(-c2ccc(F)c(NC(C)(C)C)n2)c2c(Br)c(F)c(F)cc2c1=O
